Results published in patent publication US20240389587A1, “COMPOSITIONS AND METHODS FOR CONTROLLING PHYTOPATHOGENIC INFECTIONS” (INSTITUT NATIONAL DE RECHERCHE POUR L'AGRICULTURE, …, priority 2021, published 2024).
Where two headings read alike, the source gives them in different places.

Experiments:
[1] = biological target: T1, IRE1 (Saccharomyces cerevisiae, UniProt P32361); assay: IRE1 inhibitors screening (inhibition of transcriptional activator HAC1 in yeast); format: cell-based; details: for IC50: read-out: IRE1 IC50
T1 construct: endogenous in cells
T1 sequence (P32361 19-1115): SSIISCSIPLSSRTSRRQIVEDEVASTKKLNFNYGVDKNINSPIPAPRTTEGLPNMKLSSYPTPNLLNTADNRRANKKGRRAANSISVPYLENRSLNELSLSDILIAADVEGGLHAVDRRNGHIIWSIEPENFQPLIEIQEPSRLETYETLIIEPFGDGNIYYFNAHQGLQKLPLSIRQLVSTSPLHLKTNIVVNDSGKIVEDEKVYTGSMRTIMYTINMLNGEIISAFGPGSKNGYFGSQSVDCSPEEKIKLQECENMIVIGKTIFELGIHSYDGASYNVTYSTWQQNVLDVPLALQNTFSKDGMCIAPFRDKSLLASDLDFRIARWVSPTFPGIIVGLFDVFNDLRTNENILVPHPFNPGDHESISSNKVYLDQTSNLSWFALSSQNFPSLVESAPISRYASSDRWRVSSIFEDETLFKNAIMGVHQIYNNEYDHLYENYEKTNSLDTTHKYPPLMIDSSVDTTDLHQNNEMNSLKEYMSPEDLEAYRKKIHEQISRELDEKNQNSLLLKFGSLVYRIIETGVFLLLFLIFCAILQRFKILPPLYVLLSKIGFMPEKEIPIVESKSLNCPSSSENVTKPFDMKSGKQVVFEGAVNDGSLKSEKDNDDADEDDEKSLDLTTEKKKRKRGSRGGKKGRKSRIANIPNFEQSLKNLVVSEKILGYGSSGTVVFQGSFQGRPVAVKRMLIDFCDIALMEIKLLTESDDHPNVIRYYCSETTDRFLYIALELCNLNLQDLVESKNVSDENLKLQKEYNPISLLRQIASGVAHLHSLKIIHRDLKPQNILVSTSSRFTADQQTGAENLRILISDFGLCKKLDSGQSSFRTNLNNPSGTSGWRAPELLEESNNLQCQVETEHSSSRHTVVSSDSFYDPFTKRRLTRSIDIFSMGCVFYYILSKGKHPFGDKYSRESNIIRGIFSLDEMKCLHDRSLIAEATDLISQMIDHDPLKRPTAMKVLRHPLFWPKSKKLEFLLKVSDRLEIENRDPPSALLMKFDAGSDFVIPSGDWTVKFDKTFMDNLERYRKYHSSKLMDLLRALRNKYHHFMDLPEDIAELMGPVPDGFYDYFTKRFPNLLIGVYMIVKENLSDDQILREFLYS
Excerpt: A series of natural products were screened for their capacity to inhibit the UPR pathway via the inhibition of IRE1 in an in vitro screening test, based inhibition of the transcriptional activator HAC1 in Saccharomyces cerevisiae (the IRE1 protein is the ‘sole effector of the UPR pathway in fungi).

[2] = tested on: Alternaria brassicicola; assay: In vitro nephelometric fungal growth test; details: for Cmax (concentration inducing at most 20% inhibition of fungal growth) / CTP (retained non-fungicidal concentration applied in planta): A. brassicicola; for CTP (retained non-fungicidal concentration applied in planta): inferior to MIG50 and inferior or equal to Cmax; for IC50: Alternaria brassicicola, 33 h, read-out: MIG50 (concentration inducing 50% inhibition of fungal growth)
Procedure: (§1) For inoculum preparation, conidia of A. brassicicola or B. cinerea were collected from solid culture by adding water followed by gentle scraping of the agar plate. […] Growth was monitored by nephelometric reader (NEPHELOstar Galaxy®, BMG Labtech, Offenburg, Germany) at 25° C., with orbital shaking 5 min before measurement for 33 h. Turbidity was registered every 10 mins with a gain value of 75. Each well was measured during 0.1 s with a laser beam focus of 2.5 mm. A triplicate was realized for each condition. Area under the growth curve was determined by an Excel matrix developed in the lab. Area under the growth curve was normalized by area of positive control (filamentous fungi+DMSO less compound) and PDB medium to obtain a growth percentage.

[3] = tested on: Botrytis cinerea; assay: In vitro nephelometric fungal growth test; details: for CTP (retained non-fungicidal concentration applied in planta): inferior to MIG50 and inferior or equal to Cmax; for IC50: Botrytis cinerea, 33 h, read-out: MIG50 (concentration inducing 50% inhibition of fungal growth)
Procedure: as §1

[4] = in vitro screening, IRE1 activity of less than 80% = retained as IRE1 inhibitor

| Structure (SMILES) | IRE1 inhibition (in words) [1] | μ (% activation) ± σ [1, 4] [%] | Cmax (concentration inducing at most 20% inhibition of fungal growth) [2] [µM] | CTP (retained non-fungicidal concentration applied in planta) [2] [µM] | IC50 [2] [µM] | Cmax (concentration inducing at most 20% inhibition of fungal growth) ([3]; B. cinerea) [µM] | CTP (retained non-fungicidal concentration applied in planta) ([3]; B. cinerea) [µM] | IC50 [3] [µM] | μ (% activation) ± σ [1] [%] | IC50 [1] [µM] | effect on the antifungal effects of ε-viniferin (in words) ([3]; γ-mangostin 100 μM + ε-viniferin 100 μM, B. cinerea, 35 hours) |
| --- | --- | --- | --- | --- | --- | --- | --- | --- | --- | --- | --- |
| CC(C)=CCc1c(O)cc2oc3c(O)cccc3c(=O)c2c1O [1,3,5-trihydroxy-2-prenylxanthone, 1,3,5-trihydroxy-2-(3-methylbut-2-enyl)xanthen-9-one] | inhibit IRE1 in a micromolar scale | 57.4 ± 4.9 | 100 | 50 | > 100 | 100 | 25 | > 100 | – | – | – |
| CC(C)=CCc1c(O)cc2oc3cc(O)c(O)c(CC=C(C)C)c3c(=O)c2c1O [γ-mangostin, 1,3,6,7-tetrahydroxy-2,8-bis(3-methylbut-2-enyl)xanthen-9-one] | inhibit IRE1 in a micromolar scale | – | 5 | 5 | 12.2 ± 0.2 | 100 | 25 | > 100 | 8.7 ± 5.5 | 7.3 | potentiating effect |
| O=Cc1cc(I)cc(I)c1O [DISA1, 3,5-diiodosalicylaldehyde, reference compound] | – | – | 2 | 2 | 5.3 ± 0.1 | 2.5 | 2.5 | 6.3 ± 0.7 | – | – | – |
| CC(C)=CCc1c(O)cc(O)c2c(=O)c3cccc(O)c3oc12 [1,3,5-trihydroxy-4-prenylxanthone, 1,3,5-trihydroxy-4-(3-methylbut-2-enyl)xanthen-9-one] | inhibit IRE1 in a micromolar scale | 70.9 ± 3.2 | 10 | 10 | 41.3 ± 3.7 | 100 | 25 | > 100 | – | 12.8 | – |
